The values below come from ChEMBL document CHEMBL1201862, “PubChem BioAssay data set” (2004).

The structures appear in SMILES notation. Active and inactive are the calls of the source.

Test [1] in a line: cytotoxicity in MITF-independent A375 cells – cell-based, CellTiter-Glo luminescence, dry powder, set 9, counter-screen for MITF modulator project, dose response (AID 651591). The format is functional. The conditions noted are these: A-375. In general terms: Cellular ATP, detected with luciferase, serves as a proxy for viable cell number.
For test [2], the target named is T1, Sentrin-specific protease 7 (Homo sapiens, UniProt Q9BQF6).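 Further: Luminescence-based dose-response confirmation of ultra-high-throughput screening hits, measuring inhibition of SENP7.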
T1 sequence (Q9BQF6 whole entry): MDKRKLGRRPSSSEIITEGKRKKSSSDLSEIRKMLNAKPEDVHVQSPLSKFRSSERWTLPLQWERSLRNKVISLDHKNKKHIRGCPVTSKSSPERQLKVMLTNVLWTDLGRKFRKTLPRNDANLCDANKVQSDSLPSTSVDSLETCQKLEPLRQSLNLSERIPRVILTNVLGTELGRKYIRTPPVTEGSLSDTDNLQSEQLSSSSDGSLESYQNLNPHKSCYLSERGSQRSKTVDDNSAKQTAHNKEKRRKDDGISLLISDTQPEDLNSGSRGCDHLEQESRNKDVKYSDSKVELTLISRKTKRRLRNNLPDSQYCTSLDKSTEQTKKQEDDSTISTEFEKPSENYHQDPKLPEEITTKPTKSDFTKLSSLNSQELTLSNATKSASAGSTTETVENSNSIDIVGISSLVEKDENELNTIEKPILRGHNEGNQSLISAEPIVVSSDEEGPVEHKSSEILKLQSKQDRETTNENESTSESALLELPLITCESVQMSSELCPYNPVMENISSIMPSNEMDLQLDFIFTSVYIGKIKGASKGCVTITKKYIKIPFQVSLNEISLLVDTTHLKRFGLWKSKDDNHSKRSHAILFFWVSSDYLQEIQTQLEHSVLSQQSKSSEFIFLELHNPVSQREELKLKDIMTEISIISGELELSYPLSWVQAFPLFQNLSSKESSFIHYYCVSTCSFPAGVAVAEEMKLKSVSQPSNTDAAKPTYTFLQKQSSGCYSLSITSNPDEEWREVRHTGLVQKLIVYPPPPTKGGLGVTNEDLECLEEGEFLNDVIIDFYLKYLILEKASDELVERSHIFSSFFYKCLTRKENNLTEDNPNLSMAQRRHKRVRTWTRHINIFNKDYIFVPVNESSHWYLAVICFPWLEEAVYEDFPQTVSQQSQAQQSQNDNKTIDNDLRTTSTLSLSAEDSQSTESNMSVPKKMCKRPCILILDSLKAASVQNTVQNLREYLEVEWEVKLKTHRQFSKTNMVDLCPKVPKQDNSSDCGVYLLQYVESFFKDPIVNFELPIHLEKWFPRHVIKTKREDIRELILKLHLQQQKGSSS
The format is functional.

For test [3], the target named is T2, Dual specificity protein phosphatase 6 (Rattus norvegicus, UniProt Q64346).
T2 sequence (Q64346 whole entry): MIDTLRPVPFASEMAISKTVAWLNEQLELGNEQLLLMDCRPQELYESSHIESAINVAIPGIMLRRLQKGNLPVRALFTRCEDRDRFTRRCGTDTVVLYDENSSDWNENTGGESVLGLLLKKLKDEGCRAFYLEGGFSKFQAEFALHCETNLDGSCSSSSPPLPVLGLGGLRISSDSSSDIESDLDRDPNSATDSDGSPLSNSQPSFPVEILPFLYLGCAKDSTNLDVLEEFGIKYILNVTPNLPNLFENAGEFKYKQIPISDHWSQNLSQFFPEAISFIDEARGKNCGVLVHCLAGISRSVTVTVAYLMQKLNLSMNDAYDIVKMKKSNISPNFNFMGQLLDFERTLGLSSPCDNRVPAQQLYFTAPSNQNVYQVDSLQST
As to the kind of experiment: inhibition of rat DUSP6 enzyme activity – biochemical, in vitro, primary screen (AID 425).

Test [4] deals with Dual specificity protein phosphatase 3 (Homo sapiens, UniProt P51452). Briefly: VHR1 phosphatase inhibitors, biochemical (AID 1878).
Chain of Dual specificity protein phosphatase 3 (P51452 whole entry): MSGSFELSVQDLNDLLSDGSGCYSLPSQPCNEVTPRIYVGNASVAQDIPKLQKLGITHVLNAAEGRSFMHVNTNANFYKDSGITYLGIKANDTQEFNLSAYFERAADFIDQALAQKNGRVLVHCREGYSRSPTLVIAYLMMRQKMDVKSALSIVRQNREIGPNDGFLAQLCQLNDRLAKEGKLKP
For another test, the target named is T3, Aminopeptidase N (Plasmodium falciparum FcB1/Columbia, UniProt O96935).
T3 sequence (O96935 whole entry): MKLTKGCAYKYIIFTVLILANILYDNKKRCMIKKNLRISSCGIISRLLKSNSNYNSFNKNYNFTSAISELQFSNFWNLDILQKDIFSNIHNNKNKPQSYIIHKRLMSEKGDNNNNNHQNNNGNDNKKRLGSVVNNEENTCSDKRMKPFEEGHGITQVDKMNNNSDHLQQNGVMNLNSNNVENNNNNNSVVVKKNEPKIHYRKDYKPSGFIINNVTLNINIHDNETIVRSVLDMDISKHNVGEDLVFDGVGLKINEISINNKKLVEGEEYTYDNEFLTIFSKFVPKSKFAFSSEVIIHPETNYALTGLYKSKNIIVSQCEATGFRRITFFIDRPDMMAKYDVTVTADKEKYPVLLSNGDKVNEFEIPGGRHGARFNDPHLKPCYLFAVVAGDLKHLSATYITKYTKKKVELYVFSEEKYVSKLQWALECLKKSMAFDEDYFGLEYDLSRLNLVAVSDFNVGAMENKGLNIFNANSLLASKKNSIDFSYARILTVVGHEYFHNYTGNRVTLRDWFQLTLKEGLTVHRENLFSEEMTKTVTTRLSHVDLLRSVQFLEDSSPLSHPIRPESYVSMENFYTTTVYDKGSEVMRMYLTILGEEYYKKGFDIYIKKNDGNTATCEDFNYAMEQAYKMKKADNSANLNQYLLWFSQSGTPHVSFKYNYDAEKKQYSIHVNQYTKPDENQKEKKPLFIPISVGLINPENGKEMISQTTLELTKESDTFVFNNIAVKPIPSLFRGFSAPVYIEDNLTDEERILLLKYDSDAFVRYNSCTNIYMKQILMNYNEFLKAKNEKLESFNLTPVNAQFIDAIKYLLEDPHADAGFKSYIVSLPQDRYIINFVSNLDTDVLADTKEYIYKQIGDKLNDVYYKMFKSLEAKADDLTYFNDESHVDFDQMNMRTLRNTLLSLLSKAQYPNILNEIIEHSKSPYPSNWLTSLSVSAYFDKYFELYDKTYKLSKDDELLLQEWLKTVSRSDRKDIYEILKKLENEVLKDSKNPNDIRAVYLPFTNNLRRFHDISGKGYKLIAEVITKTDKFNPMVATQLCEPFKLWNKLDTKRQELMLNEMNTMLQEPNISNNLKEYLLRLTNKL
As to the kind of experiment: malaria alanyl aminopeptidase activity blockers – biochemical, fluorogenic H-Leu-NHMec substrate, 1536-well (AID 1445). Set-up: species or system Plasmodium falciparum 3D7, 3D7.

In test [5] the target is Protein kinase C zeta type (Homo sapiens, UniProt Q05513). The class given is functional.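 Further: measured as one member of a broad kinase profiling panel.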
Chain of Protein kinase C zeta type (Q05513 whole entry): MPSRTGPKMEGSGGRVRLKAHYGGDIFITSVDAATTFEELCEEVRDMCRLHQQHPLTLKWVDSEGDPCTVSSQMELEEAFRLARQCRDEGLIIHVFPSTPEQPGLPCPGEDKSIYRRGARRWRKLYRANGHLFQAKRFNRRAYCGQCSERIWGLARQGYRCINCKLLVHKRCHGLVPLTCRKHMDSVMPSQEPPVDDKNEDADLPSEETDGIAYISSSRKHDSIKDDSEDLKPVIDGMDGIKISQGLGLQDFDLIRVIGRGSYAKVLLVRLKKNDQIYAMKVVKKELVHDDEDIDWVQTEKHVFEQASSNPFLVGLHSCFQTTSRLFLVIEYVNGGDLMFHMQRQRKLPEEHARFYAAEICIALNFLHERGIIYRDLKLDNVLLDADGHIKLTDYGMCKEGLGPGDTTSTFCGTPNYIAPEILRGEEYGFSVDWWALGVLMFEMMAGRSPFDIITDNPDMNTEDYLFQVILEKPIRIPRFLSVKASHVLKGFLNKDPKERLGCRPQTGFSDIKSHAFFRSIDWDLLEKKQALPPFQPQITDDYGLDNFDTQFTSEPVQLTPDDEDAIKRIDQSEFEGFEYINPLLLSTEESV
For a further test, the target named is Aurora kinase B (Homo sapiens, UniProt Q96GD4). The format is functional.
Chain of Aurora kinase B (Q96GD4 whole entry): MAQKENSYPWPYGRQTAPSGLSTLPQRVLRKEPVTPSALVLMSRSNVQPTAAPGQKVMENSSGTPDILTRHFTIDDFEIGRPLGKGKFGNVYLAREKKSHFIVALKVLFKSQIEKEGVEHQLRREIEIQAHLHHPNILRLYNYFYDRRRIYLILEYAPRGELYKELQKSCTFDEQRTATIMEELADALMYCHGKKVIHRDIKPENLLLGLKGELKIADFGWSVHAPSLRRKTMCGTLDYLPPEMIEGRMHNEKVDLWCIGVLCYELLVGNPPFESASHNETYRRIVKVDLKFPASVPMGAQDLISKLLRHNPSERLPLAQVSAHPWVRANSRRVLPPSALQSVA
Test [6] deals with Cell division cycle 7-related protein kinase (Homo sapiens, UniProt O00311). The class given is functional.
Chain of Cell division cycle 7-related protein kinase (O00311 whole entry): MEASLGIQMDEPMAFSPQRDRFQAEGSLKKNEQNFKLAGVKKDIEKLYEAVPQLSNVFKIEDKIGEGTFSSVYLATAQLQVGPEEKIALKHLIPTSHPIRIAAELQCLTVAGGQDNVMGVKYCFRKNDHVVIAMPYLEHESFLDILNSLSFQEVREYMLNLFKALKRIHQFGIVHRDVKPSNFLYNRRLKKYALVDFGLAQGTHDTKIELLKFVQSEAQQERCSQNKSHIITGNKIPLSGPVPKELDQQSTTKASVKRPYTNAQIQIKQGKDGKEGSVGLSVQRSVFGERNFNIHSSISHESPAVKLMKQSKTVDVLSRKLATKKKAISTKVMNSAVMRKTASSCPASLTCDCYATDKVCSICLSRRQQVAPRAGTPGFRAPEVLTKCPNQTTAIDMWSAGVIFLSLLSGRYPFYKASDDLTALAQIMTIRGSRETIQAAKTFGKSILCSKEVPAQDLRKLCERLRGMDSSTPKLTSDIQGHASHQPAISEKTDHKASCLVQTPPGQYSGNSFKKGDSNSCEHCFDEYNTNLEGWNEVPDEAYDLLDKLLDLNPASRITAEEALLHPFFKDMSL
For test [7], the target named is Serine/threonine-protein kinase Chk2 (Homo sapiens, UniProt O96017). The format is functional.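 Further: CHEK2 entry within a kinome-wide screening panel.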
Chain of Serine/threonine-protein kinase Chk2 (O96017 whole entry): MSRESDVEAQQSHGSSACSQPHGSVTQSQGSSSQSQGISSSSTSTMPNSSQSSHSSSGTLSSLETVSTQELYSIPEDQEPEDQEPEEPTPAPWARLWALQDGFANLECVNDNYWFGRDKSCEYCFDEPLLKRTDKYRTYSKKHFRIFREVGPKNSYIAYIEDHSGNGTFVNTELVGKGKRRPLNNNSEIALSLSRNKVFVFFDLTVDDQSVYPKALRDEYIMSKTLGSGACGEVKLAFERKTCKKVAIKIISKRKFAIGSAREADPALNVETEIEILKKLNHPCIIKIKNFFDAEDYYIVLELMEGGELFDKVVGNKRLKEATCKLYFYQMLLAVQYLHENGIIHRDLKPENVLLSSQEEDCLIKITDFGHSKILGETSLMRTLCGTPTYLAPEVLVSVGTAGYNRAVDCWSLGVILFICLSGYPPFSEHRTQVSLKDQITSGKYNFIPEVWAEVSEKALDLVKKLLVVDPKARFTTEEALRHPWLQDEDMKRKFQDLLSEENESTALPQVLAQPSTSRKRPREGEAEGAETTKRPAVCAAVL
The target in test [8] is Maternal embryonic leucine zipper kinase (Homo sapiens, UniProt Q14680). The class given is functional.
Chain of Maternal embryonic leucine zipper kinase (Q14680 whole entry): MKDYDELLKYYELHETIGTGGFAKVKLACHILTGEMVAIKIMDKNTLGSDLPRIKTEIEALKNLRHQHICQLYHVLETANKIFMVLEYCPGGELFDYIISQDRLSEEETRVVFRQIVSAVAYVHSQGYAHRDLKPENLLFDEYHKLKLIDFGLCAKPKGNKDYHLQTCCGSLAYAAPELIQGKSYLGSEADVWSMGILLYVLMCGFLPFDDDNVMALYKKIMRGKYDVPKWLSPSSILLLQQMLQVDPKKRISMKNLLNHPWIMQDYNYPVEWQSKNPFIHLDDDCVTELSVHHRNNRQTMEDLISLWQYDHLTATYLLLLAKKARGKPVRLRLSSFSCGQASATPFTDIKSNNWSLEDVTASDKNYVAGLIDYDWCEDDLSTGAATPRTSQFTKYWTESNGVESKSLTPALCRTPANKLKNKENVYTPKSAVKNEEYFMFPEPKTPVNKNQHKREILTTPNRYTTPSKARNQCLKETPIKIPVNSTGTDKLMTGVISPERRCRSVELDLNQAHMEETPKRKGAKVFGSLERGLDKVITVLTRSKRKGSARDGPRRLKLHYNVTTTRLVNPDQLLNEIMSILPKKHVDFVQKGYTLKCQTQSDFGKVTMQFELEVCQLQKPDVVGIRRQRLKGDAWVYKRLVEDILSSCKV
Test [9] deals with Tyrosine-protein kinase ABL1 (Homo sapiens, UniProt P00519). The format is functional.
Chain of Tyrosine-protein kinase ABL1 (P00519 whole entry): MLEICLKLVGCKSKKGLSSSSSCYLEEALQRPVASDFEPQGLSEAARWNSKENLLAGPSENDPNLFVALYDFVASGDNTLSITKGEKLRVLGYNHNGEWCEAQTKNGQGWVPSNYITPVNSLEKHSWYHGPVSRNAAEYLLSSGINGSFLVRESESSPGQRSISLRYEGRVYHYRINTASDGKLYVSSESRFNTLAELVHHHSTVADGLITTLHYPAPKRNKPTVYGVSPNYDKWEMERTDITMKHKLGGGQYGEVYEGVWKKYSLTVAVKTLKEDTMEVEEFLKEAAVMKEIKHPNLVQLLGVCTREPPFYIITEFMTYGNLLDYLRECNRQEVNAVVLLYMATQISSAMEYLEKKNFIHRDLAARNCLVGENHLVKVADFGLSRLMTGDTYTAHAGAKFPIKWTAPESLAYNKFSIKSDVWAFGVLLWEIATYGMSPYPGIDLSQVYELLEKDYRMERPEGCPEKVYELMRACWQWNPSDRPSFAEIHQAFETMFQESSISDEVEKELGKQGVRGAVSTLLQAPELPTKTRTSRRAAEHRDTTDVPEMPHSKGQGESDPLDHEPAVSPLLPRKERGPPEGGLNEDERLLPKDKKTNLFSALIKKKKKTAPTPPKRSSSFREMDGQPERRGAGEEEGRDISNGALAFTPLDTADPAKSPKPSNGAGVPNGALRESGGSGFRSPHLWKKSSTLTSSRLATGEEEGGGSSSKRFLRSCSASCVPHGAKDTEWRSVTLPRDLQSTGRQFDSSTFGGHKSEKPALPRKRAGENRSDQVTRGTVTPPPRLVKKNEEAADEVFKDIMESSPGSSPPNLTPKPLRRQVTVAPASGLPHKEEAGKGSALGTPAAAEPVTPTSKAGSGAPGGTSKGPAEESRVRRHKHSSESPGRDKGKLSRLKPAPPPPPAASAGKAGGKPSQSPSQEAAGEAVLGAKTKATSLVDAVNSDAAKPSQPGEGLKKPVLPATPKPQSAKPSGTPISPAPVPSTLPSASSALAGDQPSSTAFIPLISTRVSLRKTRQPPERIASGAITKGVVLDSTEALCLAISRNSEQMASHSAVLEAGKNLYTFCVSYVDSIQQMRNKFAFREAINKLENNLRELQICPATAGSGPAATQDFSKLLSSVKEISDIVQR

By AC50 is commonly meant the concentration at which the activity in the assay is half-maximal. What is called IC50 is the point on the concentration scale where inhibition reaches its midpoint. As to `C=CCNC1=C(Cl)C(=O)c2ccccc2C1=O`, in test [1], the AC50 was > 70 µM (inactive). Further, in test [2], the IC50 is 23.9 µM (active).
For `CS(=O)(=O)c1ccc2c(c1)SC1=NC(=O)/C(=C/c3ccc(O)c(O)c3)C(=N)N12`, the IC50 was 113 µM (not active) in [3], 4.57 µM (active) in test [4] and 51.2 µM (active) on Aminopeptidase N.
Turning to `CN(C)c1ccc(-c2nnc(-c3cccs3)o2)cc1`, in test [2], the IC50 was 12.9 µM (active).
Broadly, the Ki is the dissociation constant of the complex between target and ligand, obtained from inhibition or displacement. `COc1ccc(C(=O)Nc2n[nH]c3ccc(-c4cn(Cc5ccccc5)nn4)cc23)cc1OC`: the Ki in test [5] is > 7.94 µM (inactive); at Aurora kinase B, 0.2 µM (active); in test [6], 0.00126 µM (active); in test [7] it was 0.0501 µM (active); in test [8] it was 0.398 µM (active); in [9] it was > 0.631 µM (inactive).
